Assay results reported in patent US20200399238A1, “THERAPEUTIC AURONES” (MIDDLE TENNESSEE STATE UNIVERSITY, priority 2016, published 2020).
Where “and” joins values, the source holds several entries; their conditions need not be identical. Equal values may be shown once. Read-outs that look alike come from different tables or passages of the source.

Key:
[1] = biological target: Leishmania amazonensis promastigotes expressing beta-lactamase; experiment: microbe, parasite or virus in culture; format: cell-based; settings: for IC50: read-out: IC50 L. amaz.
Experimental: Leishmania amazonensis promastigotes expressing beta-lactamase (Buckner et al., Am. J. Trop. Med. Hyg. 72 (2005) 600-605. doi:72/5/600 [pii]) were cultured in RPMI supplemented with 10% fetal calf serum and 1% pen-strep-glut solution (Sigma) at 27° C. Stationary phase promastigotes were adjusted in fresh media, treated with compounds, and incubated at 37° C. At 24 hours, 100 uL of cultures was added to 50 uL of the CellTiter Glo® solution. Luminescence readings were taken with a spectrophotometer and used to calculate inhibition.

[2] = tested on: Trypanosoma cruzi Tulahuen cells expressing beta-galactosidase; experiment: T. cruzi intracellular assay (beta-galactosidase, L6 host cells); settings: for Selectivity L6/Tc: intracellular T. cruzi IC50
Experimental: Trypanosoma cruzi Tulahuen cells expressing beta-galactosidase (Buckner et al., Antimicrob. Agents Chemother. 40 (1996) 2592-2597) were cultured using the L6 cell line as a host cell. Adherent L6 cultures were infected with freshly burst T. cruzi trypomastigotes. Approximately 4-6 days later freshly burst trypomastigotes were collected and used to maintain cultures For assays, trypomastigotes were centrifuged to a loose pellet and incubated for 3 hours to allow the trypomastigote forms to swim out of the pellet. Cells were adjusted for addition to intracellular or extracellular assays. […] For intracellular assays, cells were added to adherent L6 cells using an infection ratio of 1:1 and immediately treated with compounds. At 96 hours incubations, a solution containing chlorophenol-red-B-D-beta-galactopyranosidase (Sigma) and a lysis agent were added. After an additional 2 hour incubation, a spectrophotometer was used to quantify the resulting color change (or lack thereof) which was used to calculate inhibition.
The percentage of cell inhibition was calculated using the formula: Percent Inhibition=1−((Treated Sample value−Medium only value)/(Untreated value−Medium only value))×100. Results are expressed as the mean of two or more independent trials.

[3] = tested on: rat skeletal muscle cell line, L6; experiment: cells; format: cell-based
Experimental: Cells were maintained in high glucose DMEM obtained from HyClone Laboratories (Logan, Utah) and supplemented with FCS and P/S at the same concentrations used for parasite culture. Cells were passaged every 3-4 days and maintained in a 37° C. humidified incubator in an atmosphere of 5% CO2. For assays. cells were detached, counted using a hemocytometer, and adjusted using fresh media to deliver 5×10^3 cells per well (90 μL) in black walled, flat clear bottom 96-well microtiter plates. After 3 h incubation for attachment, compounds diluted in culture medium were added (10 μL) to triplicate wells. Positive controls (cells treated with podophyllotoxin (Sigma, St. Louis, Mo.)), negative controls (untreated cells), solvent controls (DMSO) and media blanks were included on each plate. Following incubation for 71.5 h, 11 μL of PrestoBlue was added into each well.

[4] = tested on: Trypanosoma brucei brucei 427 cells; experiment: T. brucei culture and assay (PrestoBlue); format: cell-based
[5] = Table 3B, estimated from highest L6 dose tested where no L6 IC50
[6] = Trypanosoma cruzi, TULAHUEN, read-out: IC50 T. cruzi, Table 1, intracellular assay, mean of 2(+) trials (^c one trial)
[7] = Rattus norvegicus, Table 1, read-out: IC50 Toxicity (L6)
[8] = Trypanosoma brucei, Table 1, mean of 2(+) independent trials, read-out: IC50 T. brucei
[9] = Trypanosoma brucei, read-out: T. brucei IC50 dose
[10] = Trypanosoma cruzi, TULAHUEN, read-out: IC50 TC-I, Table 3A, weighted means of two or more independent trials
[11] = Rattus norvegicus, Table 3A, weighted means of two or more independent trials, read-out: IC50 L6
[12] = Trypanosoma cruzi, TULAHUEN, read-out: T. cruzi IC50 dose

With `O=C1/C(=C/[c-]2cccc2)Oc2ccccc21.[Fe+2].c1cc[cH-]c1` [Aurone 3001] the IC50 ([1]; Table 1, mean of 2(+) trials, ^c value from one trial) was less than 1 µM, the “Selectivity L6/La” value ([1]; Table 2, L6 IC50 / L. amazonensis IC50) was greater than 100 and the IC50 ([1]; Table 2, mean of 2(+) independent trials) was less than 1 µM. The IC50 ([2]; read-out: IC50 T. cruzi, Table 1, intracellular assay, mean of 2(+) trials (^c one trial)) was greater than 50 µM, the IC50 ([2]; read-out: IC50 T. cruzi, Table 2, intracellular assay, mean of 2(+) independent trials) was greater than 50 µM and the IC50 ([2]; read-out: IC50 TC-I, Table 3C, intracellular T. cruzi, weighted means of two or more independent trials) was greater than 50 µM. It also gave an IC50 ([3]; Table 1, read-out: IC50 Toxicity (L6)) greater than 100 µM, an IC50 ([3]; Table 2, L6 mammalian cells, read-out: IC50 Toxicity (L6)) greater than 100 µM and an IC50 ([3]; Table 3C, weighted means of two or more independent trials, read-out: IC50 L6) greater than 100 µM. For the same compound, the IC50 ([4]; Table 1, mean of 2(+) independent trials, read-out: IC50 T. brucei) was greater than 50 µM, the IC50 ([4]; Table 2, mean of 2(+) independent trials, read-out: IC50 T. brucei) was greater than 50 µM and the IC50 ([4]; Table 3C, weighted means of two or more independent trials, read-out: IC50 TB) was greater than 50 µM.

In the case of `O=C1/C(=C/c2cccc(Br)n2)Oc2ccccc21` [Aurone 9260, (Z)-2-((6-bromopyridin-2-yl)methylene)benzofuran-3(2H)-one], the “Selectivity L6/Tc” value ([2]; Table 1) is reported as greater than 6.87, the “Selectivity L6/Tc-I” value [2, 5] is reported as greater than 6.87 and the IC50 [2, 6] is reported as 14.6 µM. For the same compound, the IC50 ([2]; Trypanosoma cruzi, TULAHUEN, read-out: IC50 TC-I, Table 3B, weighted means of two or more independent trials) was 14.6 µM, the IC50 [3, 7] was greater than 100 µM and the IC50 ([3]; Rattus norvegicus, Table 3B, weighted means of two or more independent trials, read-out: IC50 L6) was greater than 100 µM. The “Selectivity L6/Tb” value ([4]; Table 1) was greater than 2.29, the “Selectivity L6/Tb” value [4, 5] was greater than 4.96 and the IC50 [4, 8] was 43.6 µM. The IC50 [4, 9] was 43.6 µM.

With `O=C1/C(=C/c2ccc(F)cc2)Oc2ccccc21` [Aurone 9002, (Z)-2-(4-fluorobenzylidene)benzofuran-3(2H)-one] the IC50 ([1]; Leishmania amazonensis) was 39.3 µM, the “Selectivity L6/La” value ([1]; Table 1) was greater than 2.54 and the “Selectivity L6/Tc” value ([2]; Table 1) was greater than 6.33. For the same compound, the “Selectivity L6/TC-I” value ([2]; Table 3A, estimated from highest L6 dose tested where no L6 IC50) was greater than 6.33, the IC50 [2, 6] was 15.8 µM and the IC50 [2, 10] was 15.8 µM. It also gave an IC50 [3, 7] greater than 100 µM, an IC50 [3, 11] greater than 100 µM and an IC50 [4, 8] greater than 50 µM.

In the case of `O=C1/C(=C/c2cccc([N+](=O)[O-])c2)Oc2ccccc21` [Aurone 12a], the “activity against T. cruzi” value [2] is reported as “modest activity” and the “activity against T. brucei” value [4] is reported as “modest activity”.

`O=C1/C(=C/c2ccccc2Cl)Oc2ccccc21` [Aurone 3a, (Z)-2-(2-chlorobenzylidene)benzofuran-3(2H)-one] was tested, and the “selectivity for T. brucei (L6/Tb)” value [4] was 21.02 and the IC50 [4, 9] was 11.3 µM.

In the case of `COc1cc(OC)c2c(c1)O/C(=C\c1ccc(C)cc1)C2=O` [Aurone 7000], the IC50 [2, 6] is reported as 7.92 µM, the IC50 ([2]; Trypanosoma cruzi, TULAHUEN, read-out: IC50 T. cruzi, Table 2, intracellular assay, mean of 2(+) independent trials) is reported as 7.92 µM and the IC50 [3, 7] is reported as 142 µM. For the same compound, the IC50 [4, 8] was 23.2 µM.

`O=C1/C(=C/c2ccc[nH]2)Nc2ccccc21` [AA5] gave an IC50 [2, 6] of 27.8 µM, an IC50 [3, 7] of 39.7 µM and an IC50 [4, 8] of 49.3 µM.

`O=C1/C(=C/c2ccc(Cl)cc2)Oc2ccccc21` [Aurone 3c, (Z)-2-(4-chlorobenzylidene)benzofuran-3(2H)-one] gave an IC50 [2, 12] of less than 10 µM.

With `O=C1/C(=C/c2ccc([N+](=O)[O-])cc2)Oc2ccccc21` [Aurone 12b] the “activity against T. cruzi” value [2] was “modest activity” and the “activity against T. brucei” value [4] was “modest activity”.

In the case of `O=C1/C(=C/c2cccc(Br)c2)Oc2ccccc21` [Aurone 5b, (Z)-2-(3-bromobenzylidene)benzofuran-3(2H)-one], the IC50 [2, 12] is reported as less than 10 µM and the IC50 [4, 9] is reported as greater than 50 µM.

Compound `O=C1/C(=C/c2ccc(C(F)(F)F)cc2)Oc2ccccc21` [Aurone 6c, (Z)-2-(4-(trifluoromethyl)benzylidene)benzofuran-3(2H)-one] has an IC50 [2, 12] of less than 10 µM.

`O=C1/C(=C/c2cccc(O)c2)Oc2ccccc21` [Sample 9252] was tested, and the IC50 [2, 10] was 16.5 µM and the IC50 [3, 11] was greater than 100 µM.

With `N#Cc1ccc(/C=C2\Oc3ccccc3C2=O)cc1` [Aurone 7c] the “selectivity for T. brucei (L6/Tb)” value [4] was 29.49 and 29.46 and the IC50 [4, 9] was 8.12 µM.

With `O=C1/C(=C/c2cccc(I)c2)Oc2ccccc21` [Aurone 4b, (Z)-2-(3-iodobenzylidene)benzofuran-3(2H)-one] the IC50 [2, 12] was less than 10 µM and the IC50 [4, 9] was greater than 50 µM.
